In patent publication EP4151202A1, “COMPOSITION FOR PREVENTING AND/OR TREATING WHITE STRETCH MARKS” (LSI Silderma Ltd, priority 2021, dated 2023):

Tested on: vergetures blanches
Assay: Tolerance of cutaneous application (side effects) on skin with white stretch marks
Format: in vivo, individus
Conditions: as active ingredient together with the excipients of formule 1
Source text: Pour évaluer l'efficacité et la tolérance d'application de la composition de l'invention, 27 individus ont appliqué, matin et soir, pendant 90 jours, sur une zone de peau nettoyée avec vergetures blanches existantes, soit une composition selon l'invention, soit une composition « placebo ».
Chez chaque individu, la composition « placebo » a été appliquée sur une première moitié de la zone constituée par les vergetures blanches, et la composition de l'invention sur l'autre moitié de ladite zone. L'application cutanée sur les différentes zones de vergetures blanches a été accompagnée d'un léger massage pour favoriser la pénétration dans la peau de chacune des deux compositions. En moyenne, il a été appliqué entre 0,02 et 0,04 mL de composition / cm^2 de peau avec vergetures blanches.
On entend par « effet secondaire » des brûlures, irritations, démangeaisons ou tout autre type de modification de la peau au niveau de la surface d'application de la composition de l'invention. Ainsi, le palmitoyl-tripeptide-5, en tant que principe actif dermatologique, en association avec les excipients, est bien toléré en application cutanée.

## palmitoyl-tripeptide-5
  tolérance en application cutanée: bien toléré
